{
  "source": "patent US20050272040A1",
  "about": "“Method for increasing synaptic growth or plasticity” (priority 2002, published 2005)",
  "tested_on": "Hippocampal neurons",
  "assay": "Western blot of VGF protein after BDNF treatment",
  "assay_type": "cell-based, rat",
  "source_text": "The products of the genes induced following learning may regulate neuronal plasticity at the single-cell level. VGF, like BDNF, is a secreted polypeptide and thus may be relevant for intercellular communication. A functional role for VGF in synaptic plasticity was thus investigated. To determine whether BDNF-induced transcriptional changes of VGF were accompanied by translational alterations, VGF levels were examined following BDNF treatment by western blot analysis. VGF, migrating as a doublet with an apparent molecular weight of 85-90 kD, increased by 1.5-fold within 3 hours of BDNF exposure. VGF protein levels were maximal at 12 hours and remained elevated for 48 hours of continuous BDNF application. Consequently, increased VGF mRNA levels after 3 hours BDNF treatment were associated with enhanced protein translation. VGF protein processing occurs in both neurons and neuroendocrine cells (Trani et al. (1995) J. Neurochem. 65:2441-2449; Salton et al. (2000) supra). The localization of VGF in dissociated hippocampal cultures was examined using a C-terminal antibody (R-15) which labeled both the soma and neurites indicating translocation to the neuronal processes. The expression of VGF was similar to that previously observed in primary neuronal cultures (Benson and Salton (1996) Brain Res. Dev. Brain Res. 96:219-228) and was punctate in appearance. This pattern is consistent with the regulated release of VGF from large dense core vesicles (Trani et al. (1995) supra; Benson and Salton (1996) supra; Possenti et al. (1999) Endocrinology 140:3727-3735) and indicates a physiological role for the peptide.\nBDNF-treated and untreated hippocampal neurons plated in equal numbers were solubilized in lysis buffer (20 mM Tris pH 8, 0.5% Triton X-100, 0.5% SDS, protease inhibitor tablet, 1 mM PMSF, and 0.5 mM vanadate). The protein content was determined with the BCA protein assay kit (Pierce Chemical Co, Rockford, Ill.). […] The immunopositive bands were visualized by chemiluminescence using the ECL™ detection kit (NEN, Boston, Mass.), quantitated on a BIO-RAD Gel Doc and normalized to actin.",
  "data": [
    {"substance": "BDNF: neurotrophin, 50 ng/ml, Preprotech; induces synaptic plasticity in hippocampal neurons", "values": [
      {"measurement": "Time VGF protein levels remained elevated", "setting": "continuous BDNF application", "value": 48, "unit": "h"},
      {"measurement": "Time of maximal VGF protein levels", "setting": "continuous BDNF application", "value": 12, "unit": "h"},
      {"measurement": "Increase in VGF protein", "setting": "within 3 hours of BDNF exposure, western blot", "value": 1.5, "unit": "fold"}
    ]}
  ]
}
